Results on two substances are retold here after US9096853B2, “Modified siRNA molecules incorporating 5-fluoro-2′-deoxyuridine residues to enhance cytotoxicity” (U.S. Department of Veterans Affairs, priority 2012, dated 2015).

The subject of data set [1] is human colon cancer RKO cell line. In words: Cell proliferation assay (WST-1) in RKO cells. The following applies: for IC50: 6 hr exposure then 96 hr growth, mean ± S.D., at least 3 experiments. It is filed as cell-based. The procedure:
RKO cells were plated in 96-well plates at a density of 800 cells/well. On the following day, cells were incubated with ssiRNA/LF2000 complexes for 6 hr, after which time, the growth medium was replaced, and cells were grown for an additional 96 hr. Similarly, RKO cells were treated with FdU (#F0503, Sigma) for 6 hr followed by medium replacement and then allowed to grow for an additional 96 hr. Cell proliferation/viability was quantified by the WST-1 assay (Roche; Indianapolis, Ind.).

Data set [2] shares this test system. In words: Clonogenic assay in RKO cells. The format is cell-based. The following applies: for IC50: 6 hr exposure, colonies counted after 8 days, mean ± S.D., at least 3 experiments. The procedure:
RKO cells were plated in 6-well plates at a density of 600 cells/well. On the following day, cells were transfected with ssiRNA/LF2000 complexes for 6 hr after which time, the growth medium was replaced. Similarly, FdU was added to wells for 6 hr followed by medium replacement. After 8 days, cell colonies were fixed with Trypan blue solution (75% methanol/25% acetic acid/0.25% trypan blue), washed, and air-dried before counting colonies >50 cells.

Data set [3] deals with thymidylate synthase (TS) protein. Briefly: Immunoblot analysis of TS protein (free and ITC-bound), Odyssey quantitation. The following applies: RKO cells; for formation of the ITC immediately after transfection: ssiRNA 10 nM, 0 hr after 6 hr transfection. It is filed as cell-based, human. Background: Immunoblotting shows a protein as a band on a membrane.
Another data set has as its system TS mRNA. In words: Real time qRT-PCR analysis of TS mRNA. The format is cell-based, human. The conditions noted are these: RKO cells, ssiRNA 1 nM, 48 hr. On the procedure: (§1) FIGS. 1A-B illustrate the effect of FdU incorporation in ssiRNA on TS protein expression. RKO cells were transfected with TS6 ssiRNAs (1 nM) containing various 3′-overhangs. After 6 hr, the medium was replaced. After an additional 48 hr, cells were harvested and processed for immunoblot and qPCR analysis as described in the Materials and Methods section. (A) Representative blot from 4 experiments. (B) All qPCR values represent the mean±S.D. from at least 3 separate experiments performed in triplicate. The normalized amount of TS mRNA from mock-transfected cells (LF2000) was set to 1.0 and all other values compared against that value. ITC, inhibitory ternary complex;
Cells were plated at a density of 1.5×10^5 cells/well. […]
The first-strand cDNA was synthesized using 1.0 μg total RNA and the iScript™ Reverse Transcription Supermix for real-time quantitative polymerase chain reaction (qRT-PCR) (Bio-Rad; Hercules, Calif.). PCR was performed in triplicate using the SsoFast™ Probes Supermix (Bio-Rad) in a final reaction volume of 10 μL with gene-specific primer/probe sets, and a standard thermal cycling procedure (40 cycles) on a Bio-Rad CFX96™ Real-Time PCR System. mRNA levels of TS and 18S RNA were assessed using the TaqMan Gene Expression real-time PCR assays (Applied Biosystems; assay ID: Hs00426586_m1 and Hs03928990_g1, respectively). Results were expressed as the threshold cycle (Ct). […]

In data set [4] the test system is p53, Fas, cleaved PARP, γH2AX, p-ATM. In words: Immunoblot of DNA damage and apoptosis signaling proteins, time course. The following applies: RKO cells, ssiRNA 10 nM, 0-72 hr. The format is cell-based, human. On the procedure:
FIG. 5 illustrates time-dependent effects of FdU-containing ssiRNAs on protein expression. RKO cells were transfected with various TS6 ssiRNAs (10 nM). After 6 hr, the medium was replaced, and cells were harvested for immunoblot blot analysis at the following times: before39 transfection (pre) and 0, 24, 48, and 72 hr after transfection. Images shown are representative blots from at least 4 different experiments; and
(§2) Protein concentrations of cell lysates were determined using the DC Protein Assay (Bio-Rad; Hercules, Calif.). Equal amounts of protein (30 μg) from each cell lysate were resolved on SDS-PAGE using the method of Laemmli (Reference 19) and transferred onto 0.45 μm nitrocellulose membranes (Bio-Rad). Membranes were blocked and incubated overnight with primary antibodies at 4° C. The following antibodies were used in the experiments: anti-TS (Clone 4H4B1; Invitrogen), anti-TS (#5449; Cell Signaling; San Francisco, Calif.), anti-p21 Waf1/Cip1 (#2947; Cell Signaling), anti-p53 (#sc-126; Santa Cruz Biotechnology; Santa Cruz, Calif.), anti-PARP (#9542; Cell Signaling), anti-Fas (#4233; Cell Signaling), anti-phospho-histone H2A.X (Ser139) (#2577; Cell Signaling), anti-histone H2A.X (#7631; Cell Signaling), anti-phospho-ATM (pS1981; EPITOMICS Inc.; Burlingame, Calif.), anti-ATM (#A1106; Sigma), and anti-α-tubulin (EMD Biosciences; San Diego, Calif.). After multiple TBST washes (1×TBS, 0.1% Tween-20), membranes were incubated with corresponding horseradish peroxidase-conjugated secondary antibodies (Bio-Rad) for 1 hr at room temperature. Proteins were detected by the enhanced chemiluminescence method (SuperSignal West Pico substrate; Pierce; Rockford, Ill.). Quantitation of signal intensities was performed by densitometry on a Xerox scanner using NIH IMAGEJ software.

The subject of data set [5] is thymidylate synthase (TS) protein. In words: Immunoblot analysis of TS protein (free and ITC-bound), Odyssey quantitation. The format is cell-based, human. The conditions noted are these: RKO cells, ssiRNA 1 nM, 48 hr; for Free TS (%) / ITC-Bound TS (%): normalized to free TS protein in mock-transfected cells (LF2000) set to 100%, mean ± S.D., 6 experiments. The procedure: as §1
Cells were plated at a density of 1.5×10^5 cells/well. On the following day, ssiRNAs were complexed with Lipofectamine 2000 (LF2000, Invitrogen) in serum-free RPMI-1640 medium and added to the plated cells. After 48 hr, cells were rinsed with PBS and scraped in cell lysis buffer (10 mM Tris pH7.4, 150 mM NaCl, 1 mM EDTA, 1% IGEPAL, 0.5% sodium deoxycholate, and 0.1% SDS) containing freshly added Protease Inhibitor Cocktail (Sigma; St. Louis, Mo.), 1 mM phenylmethylsulfonyl fluoride, and phosphatase inhibitors (Sigma). Lysates were sonicated and then centrifuged at 14,000 rpm for 30 min at 4° C. to remove debris. Cell lysates were stored at −80° C. for future use. For mRNA analysis, total RNA was extracted using Trizol (Invitrogen) and stored at −80° C. for future use.
as §2
Immunoblots were prepared as described above. After incubation with anti-TS polyclonal antibody, membranes were blocked with the Odyssey blocking buffer and incubated with IRDye 800CW goat anti-rabbit antibody (LI-COR Biosciences; Lincoln, Nebr., USA) according to the manufacturer instructions. The fluorescent signal was detected and quantified using the Odyssey infrared imaging system (LI-COR).

In a further data set the test system is GC3/TK− cells. In words: Cell proliferation (WST-1) in thymidine kinase-deficient GC3/TK− cells. It is filed as cell-based, human. The conditions noted are these: 6 hr transfection, additional 5 days. The procedure:
FIGS. 2A-B illustrate the effect of TK knockdown on the cytotoxicity of the FdU-modified ssiRNA. (A) RKO cells were transfected with 1 nM TK siRNA (lanes 3 and 4) or Mis-dU/dA (lane 5). After 6 hr, the medium was replaced with fresh medium. On the following day, cells were transfected with TS6-FdU/dA ssiRNA (1 nM) for 6 hr (lanes 2, 4, and 5) after which time, cells were harvested for immunoblot analysis. RKO cells were treated with 5-fluorouracil (5 nM) for 6 hr before harvesting (lane 6). (B) GC3/TK− cells were transfected with various concentrations of TS6-dU/dA or TS6-FdU/dA ssiRNA. After 6 hr, the medium was replaced and after an additional 5 days, cell proliferation was determined with the WST-1 assay;
The human colon cancer RKO cell line, originally obtained from ATCC, has been previously well-characterized and was maintained in RPMI-1640 (Invitrogen; Carlsbad, Calif.) with 10% (v/v) dialyzed fetal bovine serum at 37° C. in a humidified incubator with 5% CO2 (Reference 11). The thymidine kinase-deficient GC3/TK− cells were a gift from Dr. Janet Houghton (Reference 18). Cells were routinely authenticated by morphology and growth curve analysis. […]
RKO cells were plated in 96-well plates at a density of 800 cells/well. […] Cell proliferation/viability was quantified by the WST-1 assay (Roche; Indianapolis, Ind.).

In a further data set the test system is RKO cells. In words: Flow cytometry, FITC Annexin V apoptosis detection. It is filed as cell-based, human. The conditions noted are these: ssiRNA 10 nM, after 72 hr. On the procedure:
FIGS. 6A-B illustrate induction of apoptosis after transfection of FdU-containing ssiRNAs. RKO cells were transfected with various TS6 ssiRNAs (10 nM). After 6 hr, the medium was replaced with fresh medium. After 72 hr, cells were harvested, fixed, stained, and analyzed by flow cytometry as described in the Materials and Methods section. (A) Representative cytometry images from one experiment. Lower left quadrant represents viable cells; lower right quadrant, early apoptotic cells; upper right quadrant, late apoptotic cells; upper left quadrant, necrotic cells. (B) Percentage values represent the mean±S.D. from 3 separate experiments.
RKO cells were plated in T-25 cm^2 flasks at a density of 2.5×10^5/flask. Cells were transfected on the following day with siRNA/LF2000 complexes for 6 hr. After medium replacement and additional incubation for 48 and 72 hr, respectively, cells were harvested, washed twice with PBS, resuspended in 1× binding buffer at a concentration of 1×10^6 cells/mL according to the manufacturer's protocol, stained with FITC Annexin V Apoptosis Detection Kit (BD Biosciences; San Jose, Calif.), and analyzed on the BD Accuri C6 Flow Cytometer (BD Accuri Cytometers Inc.; Ann Arbor, Mich.) at the UPCI Flow Cytometry Facility.

[5FU] = 5-fluorouracil base, with d sugar it is 5-fluoro-2'-deoxyuridine (FdU); d = 2'-deoxy (DNA); r = 2'-OH (RNA)

The term IC50 denotes the midpoint of a concentration-inhibition curve. A low value points to inhibition by little substance. The substance “Mis-FdU/dA: control, non-targeted ssiRNA containing 5 FdU residues on the sense strand; SEQ ID NO: 21 and 22 (chain 1 GGAUACUGCCAAUCUCUAGGUUUUU; chain 2 CCUAGAGAUUGGCAGUAUCCAAAAA; chain 1: sugars from the 5' end r20 d5, [5FU] at 21, 22, 23, 24, 25, backbone not given here; chain 2: sugars from the 5' end r20 d5, backbone not given here)” came in with a concentration for half-maximal inhibition (IC50) in data set [1] of 2.88 nM. In data set [2], this substance displayed an IC50 of 1.75 nM. Besides, the “formation of the ITC immediately after transfection” value in data set [3] is listed as “formation of the ITC is observed”. The “effect on TS mRNA expression (in words)” value with TS mRNA was “absolutely no inhibitory effect”. Besides, the “biomarkers of DNA damage, γH2AX and p-ATM” value in data set [4] is reported as “little to no effect”. Moreover, in data set [5], the “effect on TS protein expression (in words)” value was “absolutely no inhibitory effect”, the “Free TS (%)” value amounted to 89.5 ± 26.2% and the “ITC-Bound TS (%)” value was 45.6 ± 21.1%.
With “TS6-FdU/dA: TS-targeted ssiRNA, all 3′-end overhang dU of sense strand replaced with FdU (5 FdU); SEQ ID NO: 9 and 10 (chain 1 GGAUAUUGUCAGUCUUUAGGUUUUU; chain 2 CCUAAAGACUGACAAUAUCCAAAAA; chain 1: sugars from the 5' end r20 d5, [5FU] at 21, 22, 23, 24, 25, backbone not given here; chain 2: sugars from the 5' end r20 d5, backbone not given here)”, in data set [1], the “enhancement of IC50 versus non-targeted mismatch-FdU/dA, growth assay” value is 3.5 fold and it took 0.81 nM to reach half-maximal inhibition (IC50). In addition, in data set [2], the “lower IC50 versus non-targeted mismatch-FdU/dA, clonogenic assay” value turned out to be 10 fold and half-maximal inhibition (IC50) required 0.17 nM. This substance also showed an IC50 with GC3/TK− cells of 45.9 ± 18.6 nM. In addition, the “formation of the ITC after knockdown of thymidine kinase” value in data set [3] (TK siRNA 1 nM, next day TS6-FdU/dA 1 nM for 6 hr) is listed as “prevented formation of the ITC”. For the same substance, the “formation of the ITC immediately after transfection” value in data set [3] is “formation of the ITC is observed”. Besides, in the data set with RKO cells, the “early and late apoptotic cells” value is reported as “significant increase”. In data set [4], the “biomarkers of DNA damage, γH2AX and p-ATM” value is reported as “strongly induced”; the “cleaved PARP, a marker of apoptosis” value was “elevated”; the p53 levels result is “rapidly induced”. Moreover, in data set [5], the “Free TS (%)” value was 29.8 ± 12.0% and the “ITC-Bound TS (%)” value was determined as 22.0 ± 11.8%.
